EP2712863B1, “Novel inhibitors of bacterial biofilms and related methods” (Sequoia Sciences, Inc., priority 2012, dated 2014)
≈ marks a conversion by molar mass, not a printed value. Like-named read-outs stand apart in the source and are kept apart here.

Assays:
P. aeruginosa = test: Biofilm growth assay (spreading biofilm on semi-solid agar); type: cell-based; design: P. aeruginosa (n=10): unit not given here; details: for IC85: Pseudomonas aeruginosa; for P. aeruginosa (n=10): Table 6, inhibitory concentration in the biofilm growth assay, n = number of isolates tested
E. coli = test: as above; type: cell-based; design: E. coli (n=10): unit: ug/mL; details: for IC85: Escherichia coli; for E. coli (n=10): Table 6, inhibitory concentration in the biofilm growth assay, n = number of isolates tested
How it was run: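 Spreading (swarming) biofilm on semi-solid agar: E. coli on LB with 0.6% agar and 0.5% glucose; P. aeruginosa on M8 agar with 0.2% glucose, 100 µM CaCl2, 1 mM MgSO4, 0.5% Casamino acids. Compound in medium; 5 µL overnight culture spotted centrally, 37°C overnight. Value: concentration (µg/ml) giving ≥85% reduction in spread area versus negative control.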

[1] = Bioavailability in mice (serum level after oral or IP administration); type: in vivo; details: orally or via IP injection at approximately 20 mg/kg to 50 mg/kg; 30 minutes or 1 hour after administration
Experimental: The bioavailabilities of certain compounds were examined in mice. Administration of the compounds was performed orally and by intraperitoneal (IP) injection using a vehicle as known to those skilled in the art. Many vehicles can be used to examine bioavailability. Prior to administration, each vehicle was optimized based on compound solubility according to the formulation research conducted by Uckun et al. (Arznelmittel-Forschung (Drug Research) 2007; 57(4):218-226). […] The concentration of PEG400 is modulated depending upon solubility of the compounds and the amount of aqueous phase added (0.02 M citrate and 0.9% NaCl).

Salmonella spp. = test: Biofilm growth assay, multiple isolates; type: cell-based; details: Table 6; inhibitory concentration in the biofilm growth assay; n = number of isolates tested
Experimental: (§1) The biofilm growth assay was carried out to measure swarming or biofilm spreading on semi-solid agar media in round plates (for example, 100 × 15 mm), also referred to as Petri dishes. For E. coli, the plates contained LB medium with 0.6% agar and 0.5% glucose. P. aeruginosa plates were made with M8 agar supplemented with 0.2% glucose, 100 µM CaCl2, 1 mM MgSO4, and 0.5% Casamino acids. The agar plates of this assay consisted of 0.4% to 0.7% agar (Bacto or Noble agar), although other media may also be used as described in the literature and known to those skilled in the art. Test compounds at the desired concentration were added to the cooled, autoclaved media. Portions of the media were then poured into the plates (20 mL/plate), and the plates allowed to dry at room temperature for approximately 3 to 4 hours. Alternatively, however, plates may be dried in a laminar flow hood for approximately fifteen to twenty minutes. Overnight cultures were grown in a 37°C shaker in LB (E. coli) or TSB (P. aeruginosa). Plates were inoculated by placing 5 µL of the appropriate overnight culture in the centers of the plates. The plates then were incubated overnight at 37°C. The area of the zone of spreading bacteria was then measured and replicates are averaged. Percent inhibition was calculated as 100 × (area without compound - area with compound)/(area without compound). An active compound was considered that which reduces the area of the spreading biofilm compared to negative controls by greater than or equal to 85%. The values shown in Table 1 are the concentrations of compounds (µg/ml) tested in the biofilm growth assay that reduce the area of the spreading biofilm compared to negative controls by greater than or equal to 85% unless noted differently in Table 1. A > ("greater than" symbol) as used in Table 1 is well understood to those skilled in the art as an indication that the listed concentration was not effective at this concentration.
(§2) Table 6, below, lists the inhibitory concentrations of select compounds and antibiotics in the biofilm growth assay against various gram-negative bacterial biofilms. "N" means the number of isolates of bacteria tested. The biofilm growth assay procedure detailed in Example I, above, was followed. Burkholderia cepacia used media consisting of M9 salts, 100 µM CaCl2, 1 mM MgS04, and 0.7% citrate in 0.4% Noble agar. Salmonella spp. used media consisting of Nutrient Broth with 0.5% glucose in 0.5% Noble agar.

Burkholderia cepacia = test: Biofilm growth assay, multiple isolates; type: cell-based; details: Table 6; inhibitory concentration in the biofilm growth assay; n = number of isolates tested
Experimental: as §1, §2

Evaluation of salts = type: physicochemical
Experimental: Evaluation of Compound 62 (Table 4) salt formation was performed. […] As stated herein, the invention also includes compounds and their salts. Evaluation of Compound 64 (Table 4) salt formation was performed. HCl (mono and bis), p-TSA (bis), BSA (bis), MSA (bis), H2SO4 (mono), and H3PO4 (mono) provided salts with crystallinity. […] As stated herein, the invention also includes compounds and their salts.

[2] = system: Pectobacterium atrosepticum; test: Biofilm growth assay, plant pathogens; type: cell-based; details: 0.5% Noble agar, 30°C, approximately 24 to 48 hours
Pseudomonas syringae = test: Biofilm growth assay, plant pathogens; type: cell-based; details: 0.5% Noble agar, 30°C, approximately 24 to 48 hours
P. aeruginosa biofilm = test: Biofilm growth assay with antibiotic disks (synergy); type: cell-based; details: 0.125 µg/ml in the agar with colistin 10 µg disks
Experimental: INHIBITION OF THE GROWTH OF PREFORMED BIOFILMS. The Biofilm Growth Assay as described in Example VII was performed in round plates with the compounds of the invention in agar on half of the plate and antibiotic disks placed onto the agar containing the compounds of the invention.
The Biofilm Growth Assay was performed as described in Example VIII. 2 to 4 antibiotic disks were placed onto the agar containing a compound of the invention in a line parallel to the line that separates the two agars in one round plate. Appropriate negative and positive control plates were performed as known to those skilled in the art.

Xanthomonas campestris = test: Biofilm growth assay, plant pathogens; type: cell-based; details: 0.5% Noble agar, 30°C, approximately 24 to 48 hours
[3] = Table 1, concentration that reduces the area of the spreading biofilm vs negative controls by >= 85%, > means not effective at this concentration, read-out: P. aeruginosa
[4] = Table 1, concentration that reduces the area of the spreading biofilm vs negative controls by >= 85%, > means not effective at this concentration, read-out: E. coli
[5] = Table 4, concentration that reduces the area of the spreading biofilm by >= 85%, read-out: P. aeruginosa
[6] = Table 4, concentration that reduces the area of the spreading biofilm by >= 85%, read-out: E. coli
[7] = Table 2, concentration that reduces the area of the spreading biofilm by >= 85%

Row | Compound | concentration in the serum of mice [1] [ng/mL] | inhibitory concentration in biofilm growth assay (Salmonella spp.) | inhibitory concentration (Burkholderia cepacia) | P. aeruginosa (n=10) (P. aeruginosa) | E. coli (n=10) (E. coli) | other results
1 | CC1(C)CC[C@]2(C(=O)O)CC[C@]3(C)C(=C(c4cccnc4)CC4[C@@]5(C)Cc6c(n[nH]c6N)C(C)(C)[C@@H]5CC[C@]43C)[C@@H]2C1 (stereo partly drawn) [Compound 12, (4aS,6aS,6bR,8aR,13aR,15bS)-12-Amino-2,2,6a,6b,9,9,13a-heptamethyl-15-(pyridin-3-yl)-2,3,4,4a,5,6,6a,6b,7,8,8a,9,11,13,13a,13b,14,15b-octadecahydro-1H-chryseno[1,2-f]indazole-4a-carboxylic acid] | > 5000 | – | – | – | – | IC85 (P. aeruginosa; Table 2, concentration that reduces the area of the spreading biofilm by >= 85%, read-out: P. aeruginosa): 0.5 µg/mL (≈ 0.876 µM); IC85 (E. coli; Table 2, concentration that reduces the area of the spreading biofilm by >= 85%, read-out: E. coli): 1 µg/mL (≈ 1.75 µM)
2 | CC1(C)CC[C@]2(C(=O)O)CC[C@]3(C)C(=CC[C@@H]4[C@@]5(C)CC[C@H](O)C(C)(C)[C@@H]5CC[C@]43C)[C@@H]2C1 [Oleanolic acid, reference compound] | – | > 64 | 0.5 | 8 | 16 | IC85 (P. aeruginosa; [3]): 4 µg/mL (≈ 8.76 µM); IC85 (E. coli; [4]): > 8 µg/mL
3 | CC1(C)CC[C@]2(C(N)=O)CC[C@]3(C)C(=CCC4[C@@]5(C)Cc6c(n[nH]c6N)C(C)(C)C5CC[C@]43C)C2C1 (stereo partly drawn) [Compound 62, (4aS,6aS,6bR,13aR)-12-Amino-2,2,6a,6b,9,9,13a-heptamethyl-2,3,4,4a,5,6,6a,6b,7,8,8a,9,11,13,13a,13b,14,15b-octadecahydro-1H-chryseno[1,2-f]indazole-4a-carboxamide] | – | – | – | – | – | IC85 (P. aeruginosa; [5]): 1 µg/mL (≈ 2.03 µM); physical properties compared to freebase (Evaluation of salts; p-toluenesulfonic acid (mono) and H3PO4 (bis) salts): most desirable physical properties; IC85 (E. coli; [6]): 1 µg/mL (≈ 2.03 µM)
4 | CC(C)(O/N=C(\C(=O)N[C@@H]1C(=O)N2C(C(=O)[O-])=C(C[n+]3ccccc3)CS[C@H]12)c1csc(N)n1)C(=O)O [Ceftazidime, ceftazidime, reference compound] | – | 0.5 | > 8 | 4 | 0.25 | –
5 | NC[C@H]1O[C@H](O[C@H]2[C@H](O)[C@@H](O[C@H]3O[C@H](CO)[C@@H](O)[C@H](N)[C@H]3O)[C@H](N)C[C@@H]2N)[C@H](N)C[C@@H]1O [Tobramycin, tobramcyin, reference compound] | – | 8 | > 64 | 4 | 16 | –
6 | CC1(C)CC[C@]2(C(=O)O)CC[C@]3(C)C(=CCC4[C@@]5(C)Cc6c(n[nH]c6N)C(C)(C)C5CC[C@]43C)C2C1 (stereo in doubt) [Compound 1, (4aS,6aS,6bR,13aR)-12-Amino-2,2,6a,6b,9,9,13a-heptamethyl-2,3,4,4a,5,6,6a,6b,7,8,8a,9,11,13,13a,13b,14,15b-octadecahydro-1H-chryseno[1,2-f]indazole-4a-carboxylic acid] | > 5000 | 1 | 0.25 | 1 | 1 | concentration found to inhibit the spreading biofilms [2]: 0.06 µg/mL; concentration found to inhibit the spreading biofilms (Pseudomonas syringae): 0.03 µg/mL; growth of the spreading P. aeruginosa biofilm (Figure 1) (P. aeruginosa; 0.5 µg/ml in the agar, overnight incubation at 37°C): prevented the growth of the spreading P. aeruginosa biofilm; optimal working concentration (P. aeruginosa; Figure 2 legend): 0.5 µg/mL; IC85 (P. aeruginosa; [3]): 0.5 µg/mL (≈ 1.01 µM); P. aeruginosa (P. aeruginosa; [7]): 0.5 µg/mL; IC85 (E. coli; [4]): 1 µg/mL (≈ 2.03 µM); E. coli (E. coli; [7]): 1 µg/mL; combination with colistin at preventing the growth of P. aeruginosa biofilms (Figure 2) (P. aeruginosa biofilm): synergistic; concentration found to inhibit the spreading biofilms (Xanthomonas campestris): 0.5 µg/mL
7 | CN(C)C[C@]12CCC(C)(C)CC1C1=CCC3[C@@]4(C)Cc5c(n[nH]c5N)C(C)(C)C4CC[C@@]3(C)[C@]1(C)CC2 (stereo partly drawn) [Compound 64, (4aS,6aS,6bR,13aR)-4a-((Dimethylamino)methyl)-2,2,6a,6b,9,9,13a-heptamethyl-2,3,4,4a,5,6,6a,6b,7,8,8a,9,11,13,13a,13b,14,15b-octadecahydro-1H-chryseno[1,2-f]indazol-12-amine] | > 5000 | – | – | – | – | IC85 (P. aeruginosa; [5]): 0.5 µg/mL (≈ 0.987 µM); aqueous solubility compared to freebase (Evaluation of salts; Bis-MSA and mono-H3PO4 salts): increased aqueous solubility; IC85 (E. coli; [6]): 1 µg/mL (≈ 1.97 µM)
8 | CC1(C)CC[C@]2(c3cc(O)[nH]n3)CC[C@]3(C)C(=CCC4[C@@]5(C)Cc6c(n[nH]c6N)C(C)(C)C5CC[C@]43C)C2C1 (stereo partly drawn) [Compound 68, 3-((4aS,6aS,6bR,13aR)-12-Amino-2,2,6a,6b,9,9,13a-heptamethyl-2,3,4,4a,5,6,6a,6b,7,8,8a,9,11,13,13a,13b,14,15b-octadecahydro-1H-chryseno[1,2-f]indazol-4a-yl)-1H-pyrazol-5-ol] | > 5000 | – | – | – | – | IC85 (P. aeruginosa; read-out: P. aeruginosa (µg/ml)): 0.5 µg/mL (≈ 0.94 µM); IC85 (E. coli; read-out: E. coli (µg/ml)): 0.5 µg/mL (≈ 0.94 µM)
9 | CC[C@H]1OC(=O)[C@H](C)[C@@H](O[C@H]2C[C@@](C)(OC)[C@@H](O)[C@H](C)O2)[C@H](C)[C@@H](O[C@@H]2O[C@H](C)C[C@H](N(C)C)[C@H]2O)[C@](C)(O)C[C@@H](C)CN(C)[C@H](C)[C@@H](O)[C@]1(C)O [Azithromycin, azithromycin] | – | > 16 | > 16 | > 16 | – | –
